Source: PubChem BioAssay AID1963985 (Molecular Pharmacology Branch, DTP, NCI, 2024)
pIC50: −log10 of the molar value.

Test system: 252836-082-R-J2-PDC tumor spheroids, viability
Assay: Anticancer human tumor 252836-082-R-J2-PDC patient-derived head and neck squamous cell carcinoma cell line growth inhibition [PI3K]
Settings: spheroids with HUVEC and MSC; for pIC50: curve of first compound; for viability, T/C: stronger effect = lower value; active means viability on the fitted dose curve at most 10% of control; inactive means the rest
Method in brief: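 We assembled tumor spheroids that included a stromal compartment of HUVEC and MSCs, then exposed them to targeted agents alone and together with PI3K pathway inhibitors. Concentration series descended by half-log from clinically achievable Cmax levels. Viability served as the endpoint.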

[1] = second compound 0.0316 µM, first compound 0.0316 µM
[2] = second compound 0.0316 µM, first compound 0.1 µM
[3] = second compound 0.0316 µM, first compound 0.316 µM
[4] = second compound 0.0316 µM, first compound 1 µM
[5] = second compound 0.1 µM, first compound 0.0316 µM
[6] = second compound 0.1 µM, first compound 0.1 µM
[7] = second compound 0.1 µM, first compound 0.316 µM
[8] = second compound 0.1 µM, first compound 1 µM
[9] = second compound 0.316 µM, first compound 0.0316 µM
[10] = second compound 0.316 µM, first compound 0.1 µM
[11] = second compound 0.316 µM, first compound 0.316 µM
[12] = second compound 0.316 µM, first compound 1 µM
[13] = second compound 1 µM, first compound 0.0316 µM
[14] = second compound 1 µM, first compound 0.1 µM
[15] = second compound 1 µM, first compound 0.316 µM
[16] = second compound 1 µM, first compound 1 µM
[17] = second compound 3.16 µM, first compound 0.0316 µM
[18] = second compound 3.16 µM, first compound 0.1 µM
[19] = second compound 3.16 µM, first compound 0.316 µM
[20] = second compound 3.16 µM, first compound 1 µM
[21] = second compound 10 µM, first compound 0.0316 µM
[22] = second compound 10 µM, first compound 0.1 µM
[23] = second compound 10 µM, first compound 0.316 µM
[24] = second compound 10 µM, first compound 1 µM
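Further: spheroids exposed to agents for seven days before readout.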
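Wherever viability, T/C is given: percent of vehicle DMSO control viability so 100% = untreated growth.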

Cn1ncc(Cl)c1-c1cc(C(=O)NC(CN)Cc2cccc(F)c2)sc1Cl (centres undefined) + CC(Nc1ncnc2nc[nH]c12)c1cc2cccc(Cl)c2c(=O)n1-c1ccccc1
6.56: pIC50 (second compound 10 µM)
6.30: pIC50 (second compound 0.316 µM)
6.21: pIC50 (second compound 1 µM)
inactive: viability, T/C [1] 90.3% | viability, T/C [2] 65% | viability, T/C [3] 63.8% | viability, T/C [4] 44.5% | viability, T/C (second compound 0.0316 µM, first compound 3.16 µM) 30% | viability, T/C (second compound 0.0316 µM, first compound 10 µM) 12.1% | viability, T/C [5] 100% | viability, T/C [6] 81% | viability, T/C [7] 59.7% | viability, T/C [8] 43.9% | viability, T/C (second compound 0.1 µM, first compound 3.16 µM) 33% | viability, T/C (second compound 0.1 µM, first compound 10 µM) 12.2% | viability, T/C [9] 80.9% | viability, T/C [10] 70.3% | viability, T/C [11] 56.2% | viability, T/C [12] 38.8% | viability, T/C (second compound 0.316 µM, first compound 3.16 µM) 28.2% | viability, T/C (second compound 0.316 µM, first compound 10 µM) 12% | viability, T/C [13] 84% | viability, T/C [14] 80.4% | viability, T/C [15] 58.3% | viability, T/C [16] 40.7% | viability, T/C (second compound 1 µM, first compound 3.16 µM) 29.5% | viability, T/C (second compound 1 µM, first compound 10 µM) 13% | viability, T/C [17] 76.5% | viability, T/C [18] 71.8% | viability, T/C [19] 53.8% | viability, T/C [20] 43.3% | viability, T/C (second compound 3.16 µM, first compound 3.16 µM) 27.8% | viability, T/C (second compound 3.16 µM, first compound 10 µM) 15.5% | viability, T/C [21] 57% | viability, T/C [22] 60.9% | viability, T/C [23] 49.3% | viability, T/C [24] 30.7% | viability, T/C (second compound 10 µM, first compound 3.16 µM) 27% | viability, T/C (second compound 10 µM, first compound 10 µM) 14.1%
6.27: pIC50 (second compound 3.16 µM)
6.19: pIC50 (second compound 0.0316 µM)
6.15: pIC50 (second compound 0.1 µM)

CCN1CCN(Cc2ccc(Nc3ncc(F)c(-c4cc(F)c5nc(C)n(C(C)C)c5c4)n3)nc2)CC1 + Cc1nc(NC(=O)N2CCCC2C(N)=O)sc1-c1ccnc(C(C)(C)C(F)(F)F)c1
> 8.50: pIC50 (second compound 3.16 µM) | pIC50 (second compound 10 µM)
< 6.00: pIC50 (second compound 0.0316 µM) | pIC50 (second compound 0.1 µM) | pIC50 (second compound 0.316 µM) | pIC50 (second compound 1 µM)
inactive: viability, T/C (second compound 0.0316 µM, first compound 0.00316 µM) 101% | viability, T/C (second compound 0.0316 µM, first compound 0.01 µM) 94.1% | viability, T/C [1] 80.8% | viability, T/C [2] 80.5% | viability, T/C [3] 91.3% | viability, T/C [4] 87% | viability, T/C (second compound 0.1 µM, first compound 0.00316 µM) 84.2% | viability, T/C (second compound 0.1 µM, first compound 0.01 µM) 85% | viability, T/C [5] 77.8% | viability, T/C [6] 80.2% | viability, T/C [7] 85.7% | viability, T/C [8] 86.3% | viability, T/C (second compound 0.316 µM, first compound 0.00316 µM) 67.8% | viability, T/C (second compound 0.316 µM, first compound 0.01 µM) 74.8% | viability, T/C [9] 64.7% | viability, T/C [10] 69.9% | viability, T/C [11] 59% | viability, T/C [12] 68% | viability, T/C (second compound 1 µM, first compound 0.00316 µM) 58.3% | viability, T/C (second compound 1 µM, first compound 0.01 µM) 74.9% | viability, T/C [13] 59.4% | viability, T/C [14] 61.9% | viability, T/C [15] 62.5% | viability, T/C [16] 46.4% | viability, T/C (second compound 3.16 µM, first compound 0.00316 µM) 49.1% | viability, T/C (second compound 3.16 µM, first compound 0.01 µM) 39.4% | viability, T/C [17] 43.5% | viability, T/C [18] 40.2% | viability, T/C [19] 44.2% | viability, T/C [20] 43.1% | viability, T/C (second compound 10 µM, first compound 0.00316 µM) 35.4% | viability, T/C (second compound 10 µM, first compound 0.01 µM) 42.1% | viability, T/C [21] 27.5% | viability, T/C [22] 40.1% | viability, T/C [23] 32% | viability, T/C [24] 21.1%
